Results from patent US20250129021A1, “SMALL MOLECULE PROTEIN SYNTHESIS MODULATORS” (Interdict Bio, Inc., priority 2023, published 2025).
pIC50: −log10 of the molar value. Where two headings read alike, the source gives them in different places.

Legend:
Assay type in all cases: biochemical
MYC = assay: In vitro transcription-translation (IVTT) assay, MYC reporter; conditions: IVTT assay, HeLa S3 lysate, MYC reporter, normalized sfGFP/mCherry ratio; half-log dilutions 30 μM-0.1 μM, 2 hrs at 30° C.
Outline: (§1)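 Reporter: mCherry, P2A, then 3×FLAG-target peptide-sfGFP fusion, IRES-initiated; HeLa S3 lysate IVTT; cpd dilutions 30 μM−0.1 μM half-log in 100% DMSO (dilution-plate conc); DNA added last; 2 h, 30° C; PBS quench.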

MCL-1 = assay: In vitro transcription-translation (IVTT) assay, MCL-1 reporter; conditions: HeLa S3 lysate, read-out: MCL1 IC50
Outline: as §1

CCNE1 [1] = assay: In vitro transcription-translation (IVTT) assay, CCNE1 reporter; conditions: HeLa S3 lysate, sfGFP/mCherry ratio
Description: In vitro transcription-translation assay setup: Each assay includes a master mix containing lysate and shared components, a 96-well plate containing compound titrations for testing, a 96-well DNA plate with reporter constructs to be tested, 96-well skirted PCR plates, and 96-well flat-bottom, black, fluorescent assay plates. Reaction materials setup: (A) Master mix—15 mL conical tube (3 mL of HeLa S3 Lysate described above; 0.6 mL of ThermoFisher Accessory Proteins (#88882); 1.2 ml of ThermoFisher Reaction Mix (#88882); 0.54 mL of nuclease-free Water); (B) 96-Well Master Mix+Compound Plate (Half-log dilutions (30 μM−0.1 μM) of 4 compounds of interest are prepared in 100% DMSO); 96-Well DNA Plate (Five DNA constructs are plated into single columns within the plate. Row 1 of the column contains nuclease free H2O, all other wells contain 110 ng/μL plasmid DNA). Reactions are started by mixing 155 μL of master mix and 3.5 μL of compound serial dilutions, then 9.1 μL of master mix+compound mixture is aliquoted across 5 96-well plates. Reactions begin with final addition of 2 μL of DNA for a 11.1 μL reaction volume in each well. The entire plate is sealed, and incubated for 2 hrs at 30° C. After 2 hrs, quench the assay using 45 μL of PBS, and transfer 50 μL to a flat-bottom black microplate Quantify the sfGFP and mCherry signals from each well on each plate, taking 3 reads of each plate, and perform data analysis below.
In vitro transcription-translation assay data analysis: Each plate is read three times in channels for both sfGFP and mCherry signals. The average signal across these 3 reads is then calculated for further analysis. Control wells containing no DNA reporter are subtracted from reporter wells in the same column to remove auto-fluorescence of the lysate. Then, the ratio of sfGFP/mCherry is calculated per well, and these ratios are averaged across the triplicate experiments on the same plate. Finally, the ratio of each titration concentration is normalized to the no drug control to create the normalized stalling metric. The error on this measurement is determined by propagating error through the averaging and normalization steps. Values are plotted and fit for IC50 determination for each test sequence and titration of compound.

CCND1 = assay: In vitro transcription-translation (IVTT) assay, CCND1 reporter; conditions: IVTT, HeLa S3 lysate, 2 hrs at 30° C.
Outline: as §1

CCNE1 [2] = assay: In vitro transcription-translation (IVTT) assay, CCNE1 reporter; conditions: HeLa S3 lysate, 2 hrs at 30° C.
Outline: (§2)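 HeLa S3 lysate-based coupled transcription-translation reactions with reporter plasmids, compounds in half-log dilutions (30 μM−0.1 μM, in DMSO), 2 h at 30° C. sfGFP/mCherry ratio, corrected for no-DNA background, normalized to no-drug control and fitted for IC50.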

CCNTB1 = assay: In vitro transcription-translation (IVTT) assay, CCNTB1 reporter; conditions: HeLa S3 lysate, 2 hrs at 30° C.
Outline: as §2

[3] = IVTT assay, sfGFP/mCherry ratio

SMILES | pIC50 (MCL-1; [3]) | pIC50 (CCNE1 [1]) | pIC50 (CCND1) | pIC50 (MCL-1; IVTT, 2 hrs at 30° C.) | pIC50 (CCNE1 [2]) | pIC50 (CCNTB1) | pIC50 (MYC)
O=C(NCC[C@@H]1CCNC1)O[C@@H]1[C@@H](O)CN[C@@H]1Cc1ccc(-c2cnn(C(F)F)c2)cc1 [V193081, (2R,3S,4S)-2-(4-(1-(difluoromethyl)-1H-pyrazol-4-yl)benzyl)-4-hydroxypyrrolidin-3-yl (2-((S)-pyrrolidin-3-yl)ethyl)carbamate] | > 5.00 | > 5.00 | – | – | – | – | > 5.00
O=C(NCC[C@@H]1CCN1)O[C@@H]1[C@@H](O)CN[C@@H]1Cc1ccc(-c2cnco2)c(F)c1 [V192991, (2R,3S,4S)-2-(3-fluoro-4-(oxazol-5-yl)benzyl)-4-hydroxypyrrolidin-3-yl (2-((S)-azetidin-2-yl)ethyl)carbamate] | > 5.00 | > 5.00 | – | – | – | – | > 5.00
COc1ccc(C[C@H]2NC[C@H](O)[C@H]2OC(=O)NC[C@H]2CCN(c3ncccn3)C2)cc1 [V188171, (2R,3S,4S)-4-hydroxy-2-[(4-methoxyphenyl)methyl]pyrrolidin-3-yl N-{[(3R)-1-(pyrimidin-2-yl)pyrrolidin-3-yl]methyl}carbamate] | – | – | 4.70 to 5.00 | > 5.00 | 4.70 to 5.00 | > 5.00 | 4.70 to 5.00
O=C(NCc1cccc2c1CNC2)O[C@@H]1[C@@H](O)CN[C@@H]1Cc1ccc(C(F)F)cc1 [V193139, (2R,3S,4S)-2-(4-(difluoromethyl)benzyl)-4-hydroxypyrrolidin-3-yl (isoindolin-4-ylmethyl)carbamate] | > 5.00 | > 5.00 | – | – | – | – | > 5.00
O=C(NCc1cccc(C2CNC2)c1)O[C@@H]1[C@@H](O)CN[C@@H]1Cc1ccc(-c2cc(C(F)F)cs2)cc1 [V193243, (2R,3S,4S)-2-(4-(4-(difluoromethyl)thiophen-2-yl)benzyl)-4-hydroxypyrrolidin-3-yl (3-(azetidin-3-yl)benzyl)carbamate] | > 5.00 | > 5.00 | – | – | – | – | > 5.00
O=C(NCc1cnsc1)O[C@@H]1[C@@H](O)CN[C@@H]1Cc1ccc(C(F)F)cc1 [V192929, (2R,3S,4S)-2-(4-(difluoromethyl)benzyl)-4-hydroxypyrrolidin-3-yl (isothiazol-4-ylmethyl)carbamate] | > 5.00 | > 5.00 | – | – | – | – | > 5.00
O=C(NCc1ccc2c(c1)CNC2)O[C@@H]1[C@@H](O)CN[C@@H]1Cc1ccc(-c2cc(C(F)F)cs2)cc1 [V193165, (2R,3S,4S)-2-(4-(4-(difluoromethyl)thiophen-2-yl)benzyl)-4-hydroxypyrrolidin-3-yl (isoindolin-5-ylmethyl)carbamate] | > 5.00 | > 5.00 | – | – | – | – | > 5.00
O=C(NCCOC(F)(F)F)O[C@@H]1[C@@H](O)CN[C@@H]1Cc1ccc(C(F)F)cc1 [V192930, (2R,3S,4S)-2-(4-(difluoromethyl)benzyl)-4-hydroxypyrrolidin-3-yl (2-(trifluoromethoxy)ethyl)carbamate] | > 5.00 | > 5.00 | – | – | – | – | > 5.00
O=C(NCC[C@@H]1CCCN1)O[C@@H]1[C@@H](O)CN[C@@H]1Cc1ccc(-c2cnn(C(F)F)c2)cc1 [V193080, (2R,3S,4S)-2-(4-(1-(difluoromethyl)-1H-pyrazol-4-yl)benzyl)-4-hydroxypyrrolidin-3-yl (2-((S)-pyrrolidin-2-yl)ethyl)carbamate] | > 5.00 | > 5.00 | – | – | – | – | > 5.00
COc1ccc(C[C@H]2NC[C@H](O)[C@H]2OC(=O)NCCC2CCNCC2)cc1 [V188229, (2R,3S,4S)-4-hydroxy-2-[(4-methoxyphenyl)methyl]pyrrolidin-3-yl N-[2-(piperidin-4-yl)ethyl]carbamate] | – | – | 4.70 to 5.00 | > 5.00 | 4.70 to 5.00 | > 5.00 | > 5.00

More lines, main results first:

pIC50 (MCL-1; [3]) | pIC50 (CCNE1 [1]) | pIC50 (CCND1) | pIC50 (MCL-1; IVTT, 2 hrs at 30° C.) | pIC50 (CCNE1 [2]) | pIC50 (CCNTB1) | SMILES | pIC50 (MYC)
> 5.00 | > 5.00 | – | – | – | – | O=C(NCCc1cccc(F)c1)O[C@@H]1[C@@H](O)CN[C@@H]1Cc1ccc(-c2cnco2)cc1 [V193069, (2R,3S,4S)-4-hydroxy-2-(4-(oxazol-5-yl)benzyl)pyrrolidin-3-yl (3-fluorophenethyl)carbamate] | > 5.00
> 5.00 | 4.70 to 5.00 | – | – | – | – | O=C(NCc1cccc(F)c1)O[C@@H]1[C@@H](O)CN[C@@H]1Cc1ccc(-c2cc(C(F)F)cs2)cc1 [V193142, (2R,3S,4S)-2-(4-(4-(difluoromethyl)thiophen-2-yl)benzyl)-4-hydroxypyrrolidin-3-yl (3-fluorobenzyl)carbamate] | > 5.00
> 5.00 | > 5.00 | – | – | – | – | N#Cc1csc(-c2ccc(C[C@H]3NC[C@H](O)[C@H]3OC(=O)NCc3cccc(F)c3)cc2)c1 [V193129, (2R,3S,4S)-2-(4-(4-cyanothiophene-2-yl)benzyl)-4-hydroxypyrrolidin-3-yl (3-fluorobenzyl)carbamate] | > 5.00
> 5.00 | > 5.00 | – | – | – | – | O=C(NCCOC(F)F)O[C@@H]1[C@@H](O)CN[C@@H]1Cc1ccc(-c2cnco2)cc1 [V193066, (2R,3S,4S)-4-hydroxy-2-(4-(oxazol-5-yl)benzyl)pyrrolidin-3-yl (2-(difluoromethoxy)ethyl)carbamate] | > 5.00
> 5.00 | > 5.00 | – | – | – | – | O=C(NCc1cnn(C(F)F)c1)O[C@@H]1[C@@H](O)CN[C@@H]1Cc1ccc(-c2cnco2)cc1 [V193078, (2R,3S,4S)-4-hydroxy-2-(4-(oxazol-5-yl)benzyl)pyrrolidin-3-yl ((1-(difluoromethyl)-1H-pyrazol-4-yl)methyl)carbamate] | > 5.00
> 5.00 | > 5.00 | – | – | – | – | O=C(NCC[C@@H]1CCNC1)O[C@@H]1[C@@H](O)CN[C@@H]1Cc1ccc(-c2cnco2)cc1 [V193011, (2R,3S,4S)-4-hydroxy-2-{[4-(1,3-oxazol-5-yl)phenyl]methyl}pyrrolidin-3-yl N-{2-[(3S)-pyrrolidin-3-yl]ethyl}carbamate] | > 5.00
> 5.00 | > 5.00 | – | – | – | – | O=C(NCC[C@H]1CCCCNC1)O[C@@H]1[C@@H](O)CN[C@@H]1Cc1ccc(-c2cnco2)cc1 [V193012, (2R,3S,4S)-4-hydroxy-2-(4-(oxazol-5-yl)benzyl)pyrrolidin-3-yl (2-((R)-azepan-3-yl)ethyl)carbamate] | > 5.00
> 5.00 | > 5.00 | – | – | – | – | O=C(NCc1cccc(F)c1)O[C@@H]1[C@@H](O)CN[C@@H]1Cc1ccc(-c2cnn(C(F)F)c2)cc1 [V193079, (2R,3S,4S)-2-(4-(1-(difluoromethyl)-1H-pyrazol-4-yl)benzyl)-4-hydroxypyrrolidin-3-yl (3-fluorobenzyl)carbamate] | > 5.00
> 5.00 | > 5.00 | – | – | – | – | O=C(NCc1cc(F)cc(F)c1)O[C@@H]1[C@@H](O)CN[C@@H]1Cc1ccc(-c2cnco2)cc1 [V193071, (2R,3S,4S)-4-hydroxy-2-(4-(oxazol-5-yl)benzyl)pyrrolidin-3-yl (3,5-difluorobenzyl)carbamate] | > 5.00
> 5.00 | > 5.00 | – | – | – | – | O=C(NCc1cccc(OC(F)F)c1)O[C@@H]1[C@@H](O)CN[C@@H]1Cc1ccc(-c2cnco2)cc1 [V193068, (2R,3S,4S)-4-hydroxy-2-(4-(oxazol-5-yl)benzyl)pyrrolidin-3-yl (3-(difluoromethoxy)benzyl)carbamate] | > 5.00
> 5.00 | > 5.00 | – | – | – | – | O=C(NCC[C@@H]1CCN1)O[C@@H]1[C@@H](O)CN[C@@H]1Cc1ccc(-c2cnco2)cc1F [V192990, (2R,3S,4S)-2-(2-fluoro-4-(oxazol-5-yl)benzyl)-4-hydroxypyrrolidin-3-yl (2-((S)-azetidin-2-yl)ethyl)carbamate] | > 5.00
> 5.00 | > 5.00 | – | – | – | – | O=C(NCC[C@@H]1CCCCNC1)O[C@@H]1[C@@H](O)CN[C@@H]1Cc1ccc(-c2cnco2)cc1 [V193013, (2R,3S,4S)-4-hydroxy-2-{[4-(1,3-oxazol-5-yl)phenyl]methyl}pyrrolidin-3-yl N-{2-[(3S)-azepan-3-yl]ethyl}carbamate] | > 5.00
